Holding throughout (assay): NCI tumour cell line growth inhibition, 48 h
Experiment [1] relates to SNB-75 CNS.
Experiment [2] has as its system NCI-H226 lung.
Experiment [3] relates to A549 NSCLC.
Experiment [4] relates to SW-620 colon.
The test system of experiment [5] is RXF 393 renal.
Experiment [6] concerns MCF7 breast.
Experiment [7] relates to UACC-257 melanoma.
The test system of experiment [8] is CCRF-CEM leukemia.
Experiment [9] relates to SK-MEL-28 melanoma.
The subject of experiment [10] is NCI-H23 lung.
Experiment [11] deals with LOX IMVI melanoma.

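Following 48 hours of exposure in 96-well plates, responses at five concentrations were used to interpolate endpoints linearly. Definition used: TGI = concentration required for complete inhibition of growth.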

The results in this text go back to PubChem BioAssay (NCI).

For `COc1cc(C2c3cccc4cccc(c34)C3CCC(=O)N32)cc(O)c1O` (stereo unspecified), the TGI in experiment [1], in experiment [2], in experiment [3], in experiment [4], in experiment [5] and in experiment [6] was > 50 µM throughout. The TGI is > 50 µM in [7], 31.4 µM in experiment [8], > 50 µM in experiment [9] and > 50 µM in experiment [10].

Consider `CC(C)=CCC/C(C)=C/Cc1cc(/C=C/c2cc(O)c(CC=C(C)C)c(O)c2)cc(O)c1O`, for which the TGI in experiment [1] came to 7.57 µM; in experiment [11], 7 µM; in experiment [2], 23 µM; in experiment [3], 17.5 µM; in experiment [4] it was 14.5 µM; in [5], 8.65 µM. Also, the TGI in [6] was found to be 13.4 µM; in experiment [7], 5.2 µM; in [9], 17.5 µM; in experiment [10], 11.2 µM.

Take `CCOC(=O)CNC(=O)C(CSC(=O)N(O)c1ccc(Br)cc1)NC(=O)CCC(N)C(=O)OCC` (stereo unspecified): the TGI in experiment [11], in experiment [2], in experiment [3], in experiment [4], in experiment [5] and in experiment [6] was > 50 µM each time. Also, the TGI in experiment [7], in experiment [8], in experiment [9] and in [10] was > 50 µM in each case.

Turning to `Fc1ccc(C(OCCN2CCC3CCC(C2)N3CCCc2ccccc2)c2ccc(F)cc2)cc1` (stereo unspecified), the TGI in experiment [1] worked out at 10.3 µM; in experiment [11] it was 13.8 µM; in [2], 15.1 µM; in [3] it was 19.4 µM; in [4], 19.9 µM; in experiment [6], 13 µM. For the same compound, the TGI in experiment [7] came to 8.93 µM; in experiment [8] it was 11.3 µM; in [9], 6.53 µM; in [10] it was 15 µM.

On to `C/C(C=O)=N\Nc1cc(C)c2ccccc2n1`, for which the TGI in [1] turned out to be 30.3 µM; in experiment [11] it was 29.4 µM; in experiment [3], 43 µM; in experiment [4] it was 72.8 µM; in experiment [5], 43.1 µM; in [6], 29.5 µM. The TGI in experiment [7] came out at 36.6 µM; in [8], 29.3 µM; in experiment [9], 39.1 µM; in experiment [10] it was 25.9 µM.

Turning to `CSc1nc(C)cc(Nc2ccc(O)c(CN3CCCCC3)c2)n1`, the TGI is > 100 µM in experiment [1]; > 100 µM in experiment [11]; 84.3 µM in experiment [2]; > 100 µM in experiment [3]; > 100 µM in experiment [4]; > 100 µM in experiment [5]. Besides, the TGI in experiment [6] is > 100 µM; in experiment [9] it was 79.6 µM; in experiment [10], > 100 µM.

For the compound `CC(=O)c1c2c(cc3c1CC1(Cc4cc5c(cc4C1)CCC5)C3)CCC2`, the TGI in experiment [1], in experiment [11], in experiment [3], in experiment [4], in [5] and in [6] was > 100 µM in each case. Further, the TGI in experiment [7], in [8], in experiment [9] and in experiment [10] was > 100 µM in each case.

Regarding `COc1ccccc1NC(=O)C(C#N)=C(SC)SC`, the TGI in experiment [11], in [2], in experiment [3], in [4], in [5] and in experiment [6] was > 100 µM in each case. For the same compound, the TGI in experiment [7], in experiment [8], in experiment [9] and in experiment [10] was > 100 µM each time.

`CC(=O)OCC(OC(C)=O)C(OC(C)=O)C(/C=N/N(C(C)=O)S(=O)(=O)c1ccc(/C=C2\NC(=O)NC2=O)cc1)OC(C)=O` (stereo unspecified): the TGI in [1], in experiment [2], in experiment [3], in experiment [4], in [5] and in [6] was > 100 µM in each case. The TGI in experiment [7], in [8] and in [10] was > 100 µM in each case.

`CCOC(=O)[C@H]1C[C@@H](C(=O)c2ccccc2)N2N=C(c3ccc(Br)cc3)C=C[C@H]12`: the TGI in [1], in experiment [11], in experiment [2], in experiment [3], in [4] and in [5] was > 100 µM in each case. For the same compound, the TGI in [6], in experiment [7], in [9] and in experiment [10] was > 100 µM throughout.

With `O=C(O)CCC(=O)Nc1ccc2c(c1)S(=O)(=O)N(CC(=O)O)C2=O`, the TGI in experiment [11], in experiment [2], in experiment [3], in experiment [4], in [6] and in experiment [7] was > 100 µM in each case. The TGI in [8], in [9] and in experiment [10] was > 100 µM in each case.

`CC(C#N)Nc1ccc(Oc2ccc(C(C)(C)c3ccc(Oc4ccc(NC(C)C#N)cc4)cc3)cc2)cc1` (stereo unspecified): the TGI in experiment [1], in [11], in experiment [2], in [3], in experiment [4] and in experiment [5] was > 100 µM each time. Moreover, the TGI in [6], in [7], in [9] and in experiment [10] was > 100 µM in each case.

For `COc1c(O)cc(/C=C/c2cc(O)cc3c2[C@@]2(C(=O)O3)c3c(O)cc(O)cc3OC2c2cccc(O)c2)cc1O` (stereo partly specified), the TGI in [11], in experiment [3], in [4], in [5], in [6] and in experiment [7] was > 100 µM throughout. The TGI in [8], in experiment [9] and in [10] was > 100 µM in each case.

Turning to `Oc1ccccc1C=Nc1ccc(Oc2ccc(Cl)cc2)c(Cl)c1`, the TGI in [1] is 58.6 µM; in [11] it was 41 µM; in [2] it was 93.9 µM; in experiment [3], 58.7 µM; in [4] it was > 100 µM; in [6] it was > 100 µM. Moreover, the TGI was > 100 µM in experiment [7], 54.3 µM in experiment [8], 72.5 µM in experiment [9] and 45.4 µM in experiment [10].
